Source: US4220644A, “7-Acylamino-3-(substituted tetrazolyl thiomethyl) cephalosporins” (SmithKline Corporation, priority 1976, dated 1980)
≈ marks a conversion by molar mass, not a printed value. Where two headings read alike, the source gives them in different places.

Key:
E. coli SK 12140 = assay: MIC in vitro (Table 1), E. coli SK 12140; type: cell-based
Description: (§1) Compound names corresponding to numbers are given in the experimental section. For comparative purposes, data for cephamandole, which is 7-mandelamido-3-(1-methyltetrazol-5-ylthiomethyl)-3-cephem-4-carboxylic acid, is also given in Tables 1 and 2.

Shigella HH 117 = assay: MIC in vitro (Table 1), Shigella HH 117; type: cell-based
Description: as §1, with “The compounds of Formula I have antibacterial activity against both Gram-positive and Gram-negative organisms. […] Compound” for “Compound”

Proteus morgani 179 = assay: MIC in vitro (Table 1), Proteus morgani 179; type: cell-based
Description: as §1

Kleb. pneumo. SK 1200 = assay: MIC in vitro (Table 1), Kleb. pneumo. SK 1200; type: cell-based
Description: as §1

S. villaluz = assay: MIC in vitro (Table 1), S. villaluz; type: cell-based
Description: as §1, with “The compounds of Formula I have antibacterial activity against both Gram-positive and Gram-negative organisms. […] Compound” for “Compound”

Kleb. pneumo. SK 4200 = assay: MIC in vitro (Table 1), Kleb. pneumo. SK 4200; type: cell-based
Description: as §1

Strep. Faecalis HH 34358 = assay: MIC in vitro (Table 1), Strep. Faecalis HH 34358; type: cell-based; conditions: in vitro, Strep. Faecalis HH 34358
Description: as §1

S. aureus HH 127 = assay: MIC in vitro (Table 1), S. aureus HH 127; type: cell-based; conditions: S. aureus HH 127
Description: as §1

Salmonella ATCC 12176 = assay: MIC in vitro (Table 1), Salmonella ATCC 12176; type: cell-based
Description: as §1, with “The compounds of Formula I have antibacterial activity against both Gram-positive and Gram-negative organisms. […] Compound” for “Compound”

Entero. cloacae HH 31254 = assay: MIC in vitro (Table 1), Entero. cloacae HH 31254; type: cell-based
Description: as §1

Serra. Marc. ATCC 13880 = assay: MIC in vitro (Table 1), Serra. Marc. ATCC 13880; type: cell-based; conditions: in vitro, Serra. Marc. ATCC 13880
Description: as §1

E. coli HH 33779 = assay: MIC in vitro (Table 1), E. coli HH 33779; type: cell-based
Description: as §1

[1] = test system: Entero. aerog. ATCC 13048; assay: MIC in vitro (Table 1), Entero. aerog. ATCC 13048; type: cell-based
Description: as §1

S. aureus SK 23390 = assay: MIC in vitro (Table 1), S. aureus SK 23390; type: cell-based
Description: as §1

E. coli 12140 = assay: In vivo mouse protection (Table 2), E. coli 12140
Description: as §1

Pseudo. sp. HH 63 = assay: MIC in vitro (Table 1), Pseudo. sp. HH 63; type: cell-based; conditions: in vitro, Pseudo. sp. HH 63; read-out: MIC
Description: as §1, with “The compounds of Formula I have antibacterial activity against both Gram-positive and Gram-negative organisms. […] Compound” for “Compound”

Kleb. pneumo. 4200 = assay: In vivo mouse protection (Table 2), Kleb. pneumo. 4200
Description: as §1

[2] = Shigella, HH117, in vitro, read-out: MIC
[3] = Escherichia coli, 12140, po, E. coli 12140, p.o.
[4] = Escherichia coli, 12140, sc, E. coli 12140, s.c.
[5] = Enterococcus faecalis, read-out: MIC
[6] = Staphylococcus aureus, HH127, in vitro, read-out: MIC
[7] = Salmonella, ATCC12176, in vitro, read-out: MIC
[8] = Escherichia coli, SK12140, in vitro, read-out: MIC
[9] = in vitro, Kleb. pneumo. SK 4200, read-out: MIC
[10] = Enterobacter cloacae, HH31254, in vitro, Entero. cloacae HH 31254, read-out: MIC
[11] = Escherichia coli, HH33779, in vitro, E. coli HH 33779, read-out: MIC
[12] = in vitro, Entero. aerog. ATCC 13048, read-out: MIC

Row | Compound | MIC (Shigella HH 117; in vitro) [µg/mL] | MIC (Proteus morgani 179) [µg/mL] | MIC (Kleb. pneumo. SK 1200) [µg/mL] | MIC (Salmonella ATCC 12176; in vitro) [µg/mL] | MIC (S. aureus SK 23390; in vitro, S. aureus SK 23390) [µg/mL] | MIC (Shigella HH 117; [2]) [µg/mL] | ED50 (E. coli 12140; [3]) [mg/kg] | ED50 (E. coli 12140; [4]) [mg/kg] | MIC (Kleb. pneumo. SK 4200) [µg/mL] | MIC (Strep. Faecalis HH 34358; [5]) [µg/mL] | MIC (S. aureus HH 127; [6]) [µg/mL] | MIC (Salmonella ATCC 12176; [7]) [µg/mL] | MIC (Entero. cloacae HH 31254; Enterobacter cloacae, HH31254) [µg/mL] | MIC (Serra. Marc. ATCC 13880; read-out: MIC) [µg/mL] | MIC (Pseudo. sp. HH 63) [µg/mL] | MIC (S. aureus SK 23390; Staphylococcus aureus, SK23390) [µg/mL] | ED50 (Kleb. pneumo. 4200; po, Kleb. pneumo. 4200, p.o.) [mg/kg] | ED50 (Kleb. pneumo. 4200; sc, Kleb. pneumo. 4200, s.c.) [mg/kg] | MIC (E. coli SK 12140; [8]) [µg/mL] | MIC (E. coli HH 33779; [11]) [µg/mL] | other results
1 | 7-(α-Carboxythienylacetamido)-3-(1-carboxymethyltetrazol-5-ylthiomethyl)-3-cephem-4-carboxylic acid [XIX] | 6 | 6 | 6 | 25 | 50 |  |  |  |  |  |  |  |  |  |  |  |  |  |  |  | MIC (E. coli SK 12140; in vitro): 25 µg/mL; MIC (S. villaluz): 100 µg/mL; MIC (Kleb. pneumo. SK 4200; in vitro, Kleb. pneumo. SK 4200): 50 µg/mL; MIC (Strep. Faecalis HH 34358): 200 µg/mL; MIC (S. aureus HH 127; in vitro): 50 µg/mL; MIC (Entero. cloacae HH 31254; in vitro, Entero. cloacae HH 31254): 50 µg/mL; MIC (Serra. Marc. ATCC 13880): 50 µg/mL; MIC (E. coli HH 33779; in vitro, E. coli HH 33779): 50 µg/mL; MIC ([1]; in vitro, Entero. aerog. ATCC 13048): 50 µg/mL
2 | CNC(=O)Cn1nnnc1SCC1=C(C(=O)O)N2C(=O)C(NC(=O)[C@H](O)c3ccccc3)[C@H]2SC1 (stereo partly drawn) [III, 7-D-Mandelamido-3-(1-N-methylcarbamoylmethyltetrazol-5-ylthiomethyl)-3-cephem-4-carboxylic acid] |  | 3.1 (≈ 5.97 µM) | 3.1 (≈ 5.97 µM) |  |  | 3.1 (≈ 5.97 µM) | 34 | 1.56 | 3.1 (≈ 5.97 µM) | 25 (≈ 48.1 µM) | 1.6 (≈ 3.08 µM) | 0.8 (≈ 1.54 µM) | 3.1 (≈ 5.97 µM) | 25 (≈ 48.1 µM) | > 200 | 3.1 (≈ 5.97 µM) | > 50 | 2.8 |  |  | MIC (E. coli SK 12140; Escherichia coli, SK12140, in vitro): 3.1 µg/mL (≈ 5.97 µM); MIC (E. coli HH 33779; Escherichia coli, HH33779): 3.1 µg/mL (≈ 5.97 µM); MIC [1]: 3.1 µg/mL (≈ 5.97 µM)
3 | CN(C)C(=O)Cn1nnnc1SCC1=C(C(=O)O)N2C(=O)C(NC(=O)[C@H](O)c3ccccc3)C2SC1 (stereo partly drawn) [IV, 7-D-Mandelamido-3-(1-N,N-dimethylcarbamoylmethyltetrazol-5-ylthiomethyl)-3-cephem-4-carboxylic acid] |  |  |  |  |  | 0.8 (≈ 1.5 µM) | 168 | 2.5 |  | 25 (≈ 46.9 µM) | 1.6 (≈ 3 µM) | 3.1 (≈ 5.81 µM) |  | 100 (≈ 187 µM) | > 200 | 0.8 (≈ 1.5 µM) | 168 | 7.5 | 3.1 (≈ 5.81 µM) | 6.3 (≈ 11.8 µM) | MIC (Kleb. pneumo. SK 1200; read-out: MIC): 1.6 µg/mL (≈ 3 µM); MIC (S. villaluz; read-out: MIC): 50 µg/mL (≈ 93.7 µM); MIC (Kleb. pneumo. SK 4200; [9]): 3.1 µg/mL (≈ 5.81 µM); MIC (Entero. cloacae HH 31254; [10]): 1.6 µg/mL (≈ 3 µM); MIC [1, 12]: 6.3 µg/mL (≈ 11.8 µM)
4 | CN(C)C(=O)Cn1nnnc1SCC1=C(C(=O)O)N2C(=O)C(NC(=O)[C@H](N)c3ccc(O)cc3)C2SC1 (stereo partly drawn) [IX, 7-(D-α-Amino-4-hydroxyphenylacetamido)-3-(1-N,N-dimethylcarbamoylmethyltetrazol-5-ylthiomethyl)-3-cephem-4-carboxylic acid] |  |  | 6.3 (≈ 11.5 µM) |  |  | 6.3 (≈ 11.5 µM) | 28.5 | 1.56 | 6.3 (≈ 11.5 µM) | 25 (≈ 45.6 µM) | 12.5 (≈ 22.8 µM) | 3.1 (≈ 5.65 µM) | 3.1 (≈ 5.65 µM) | 200 (≈ 365 µM) | > 200 | 6.3 (≈ 11.5 µM) | 18 | 3.7 | 12.5 (≈ 22.8 µM) | 12.5 (≈ 22.8 µM) | MIC (Proteus morgani 179; read-out: MIC): 100 µg/mL (≈ 182 µM); MIC [1]: 12.5 µg/mL (≈ 22.8 µM)
5 | NC(=O)Cn1nnnc1SCC1=C(C(=O)O)N2C(=O)C(NC(=O)[C@H](O)c3ccccc3)[C@H]2SC1 (stereo partly drawn) [V, 7-D-Mandelamido-3-(1-carbamoylmethyltetrazol-5-ylthiomethyl)-3-cephem-4-carboxylic acid] | 0.4 (≈ 0.791 µM) | 1.6 (≈ 3.16 µM) | 0.4 (≈ 0.791 µM) | 0.4 (≈ 0.791 µM) | 1.6 (≈ 3.16 µM) | 0.2 (≈ 0.396 µM) | 50 | 1.56 |  | 25 (≈ 49.5 µM) | 1.6 (≈ 3.16 µM) | 0.8 (≈ 1.58 µM) | 0.4 (≈ 0.791 µM) | 12.5 (≈ 24.7 µM) | > 200 |  | 21.2 | 1.3 | 0.8 (≈ 1.58 µM) | 1.6 (≈ 3.16 µM) | MIC (Proteus morgani 179; read-out: MIC): 3.1 µg/mL (≈ 6.13 µM); MIC (Kleb. pneumo. SK 1200; read-out: MIC): 0.8 µg/mL (≈ 1.58 µM); MIC (S. villaluz; read-out: MIC): 25 µg/mL (≈ 49.5 µM); MIC (Kleb. pneumo. SK 4200; [9]): 1.6 µg/mL (≈ 3.16 µM); MIC (Entero. cloacae HH 31254; [10]): 0.8 µg/mL (≈ 1.58 µM); MIC [1, 12]: 1.6 µg/mL (≈ 3.16 µM); MIC (S. aureus SK 23390; Staphylococcus aureus, SK23390, in vitro, S. aureus SK 23390, read-out: MIC): 3.1 µg/mL (≈ 6.13 µM)
